Test results: patent US7405314B2 (priority 2004, dated 2008)

Tests used:
[1] = system: panel of 60 tumor cell lines; format: cell-based, human
[2] = system: HL60 human leukemia cells; format: cell-based
HL60 cells = format: cell-based, human
[3] = system: U937/PR9 cells (PML/RAR alpha); format: cell-based, human
Swiss Webster mice = details: mouse, in vivo
mice = details: mouse, in vivo

## C[As](C)SC[C@H](NC(=O)CC[C@H](N)C(=O)O)C(=O)NCC(=O)O [SGLU1, S-(Dimethylarsino) Glutathione]
[1]
  anticancer activity against tumor cell line panel: evidence of activity at low concentrations
[2]
  induction of apoptosis (annexin V staining), events involved: involves change of the potential of mitochondrial membrane (CMXRos staining) and activation of caspases
HL60 cells
  cell cycle disturbance: marked accumulation of cells in S-phase
[3]
  influence of functional PML/Rar alpha gene on sensitivity of the cells: no influence on the sensitivity
Normal donor cells
  toxicity to normal cells compared with arsenic trioxide: less toxic then arsenic trioxide
Swiss Webster mice
  tolerability: tolerated
mice; both, iv
  doses at which deaths occurred: 250, 300, and 350 mg/kg/day
mice; female, iv
  no-observable-effect level for female mice: 150 mg/kg
mice; male, iv
  no-observable-effect level (NOEL) for male mice: 100 mg/kg/day
mice; 150 mg/kg/day
  testicular seminiferous tubular degeneration, incidence: ⅕
mice; 200 mg/kg/day
  centrilobular hypertrophy of hepatocytes, incidence: ⅕
mice; iv
  organs with compound-related lesions: lung, liver, thymus, and testes
  sex difference in susceptibility (deaths): female mice being more susceptible than males
